Measurements: BindingDB's records for doi:10.1016/0960-894X(96)00012-1 (1996)

Target: T1, Acetylcholinesterase (Bos taurus, UniProt P23795)
T1 sequence (P23795 whole entry): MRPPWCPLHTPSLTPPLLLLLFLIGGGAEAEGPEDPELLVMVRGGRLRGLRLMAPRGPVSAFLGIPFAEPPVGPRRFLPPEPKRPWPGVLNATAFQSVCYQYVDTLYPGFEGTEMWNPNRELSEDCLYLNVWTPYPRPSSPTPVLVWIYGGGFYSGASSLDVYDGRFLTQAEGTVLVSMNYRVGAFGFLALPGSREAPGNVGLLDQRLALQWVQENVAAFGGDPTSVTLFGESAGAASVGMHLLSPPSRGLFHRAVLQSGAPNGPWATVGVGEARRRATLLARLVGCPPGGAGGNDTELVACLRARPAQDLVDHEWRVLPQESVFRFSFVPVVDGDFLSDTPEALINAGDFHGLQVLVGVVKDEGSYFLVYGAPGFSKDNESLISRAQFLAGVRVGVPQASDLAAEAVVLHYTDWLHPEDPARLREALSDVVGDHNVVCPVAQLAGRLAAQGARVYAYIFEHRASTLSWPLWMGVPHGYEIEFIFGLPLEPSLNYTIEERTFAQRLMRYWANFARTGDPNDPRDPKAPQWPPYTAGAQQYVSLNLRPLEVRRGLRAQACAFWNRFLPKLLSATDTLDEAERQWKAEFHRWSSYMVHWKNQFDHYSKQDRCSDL
Test: Kinetic constant for inhibition of fetal bovine serum acetylcholinesterase
Details: for kon: read-out: kon (M-1-s-1)

## C/C=C1\C2C=C(C)C[C@]1(N)c1ccc(=O)[nH]c1C2(C)C [(R)-1-Amino-13-ethylidene-8,8,11-trimethyl-6-aza-tricyclo[7.3.1.0*2,7*]trideca-2(7),3,10-trien-5-one]
  kon: 0.013 M⁻¹ s⁻¹

## C/C=C1\[C@H]2C=C(C)C[C@@]1(N)c1ccc(=O)[nH]c1C2 [Huperzine A]
  kon (M-1-s-1): 0.05667 M-1-s-1
  kon: 0.057 M⁻¹ s⁻¹
